The results in this text go back to PubChem BioAssay (NCI).

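How tested: cells in 96-well plates exposed to compound for 48 hours at five concentrations. GI50: concentration for 50% inhibition of growth. TGI marks complete inhibition of growth.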

Common to all, as to test: DTP human tumour cell line panel, 48 h
Test [1] concerns PC-3 prostate.
Test [2] deals with KM12 colon.
In test [3] the test system is NCI-H23 lung.
Test [4] has as its system SF-539 CNS.
In test [5] the test system is SK-OV-3 ovarian.
For test [6], the system named is COLO 205 colon.
The subject of test [7] is A549 NSCLC.
The test system of test [8] is K-562 leukemia.
Test [9] concerns SF-295 CNS.
For test [10], the system named is OVCAR-4 ovarian.

With `CCOc1nc(-c2ccccc2)cc2c(O)c(-c3nnco3)[nH]c(=O)c12`, the GI50 in test [1] was 4.3 µM; in [2] it was 4.14 µM; in test [3], 4.01 µM; in test [4] it was 4.39 µM; in [5], 10 µM; in [6], 5.74 µM. Moreover, the GI50 in test [7] is 4.55 µM; in [8], 4.83 µM; in [9], 4.28 µM. The TGI is more than 100 µM in test [1]; more than 100 µM in test [2]; more than 100 µM in [3]; more than 47.1 µM in test [4]; 75.9 µM in [5]; more than 100 µM in test [6]. Moreover, the TGI is more than 100 µM in test [7], more than 100 µM in [8] and more than 54.4 µM in test [9].

With `C[C@H]1c2cccc(O)c2C(O)=C2C(=O)[C@]3(O)C(O)=C(C(N)=O)C(=O)[C@@H](N(C)C)[C@@H]3[C@@H](O)[C@@H]21`, the GI50 in test [1] was 3 µM; in [2], 3.37 µM; in [3], 2.99 µM; in test [4], 3.88 µM; in [5], 3.38 µM; in test [10], 3.34 µM. Moreover, the GI50 in [6] is 1.88 µM; in test [7] it was 3.22 µM; in test [9], 2 µM. Besides, the TGI in test [1] was 12.8 µM; in test [2], 11.5 µM; in [3] it was 11.9 µM; in test [4], 14.8 µM; in test [5], 14.3 µM; in test [10] it was 42.1 µM. The total growth inhibition concentration (TGI) worked out at 3.63 µM in test [6], 13.2 µM in test [7] and 5.69 µM in test [9].

On to `COc1ccc(N2C(=O)C(c3ccccc3)(c3ccccc3)C23C(=O)N(C)c2ccccc23)cc1` (centres undefined), for which the GI50 in test [1], in [2], in test [3], in test [4], in test [5] and in test [10] was more than 100 µM throughout. The GI50 in [6], in [7], in [8] and in test [9] was more than 100 µM throughout. For the same molecule, the TGI in test [1], in test [2], in test [3], in test [4], in [5] and in test [10] was more than 100 µM in each case. The TGI in test [6], in [7], in test [8] and in test [9] was more than 100 µM throughout.

As for `OCCN1CN(CCO)CN(c2nc(N3CN(CCO)CN(CCO)C3)nc(N3CN(CCO)CN(CCO)C3)n2)C1`, the TGI was 3.51 ng/mL in [1]; 4.39 ng/mL in test [3]; 4.64 ng/mL in test [5]; 4.06 ng/mL in test [10]; 69.5 ng/mL in test [7]. Also, the figures for the GI50 in [3], in test [5] and in [10] were 1.42 ng/mL, 1.39 ng/mL and 1.69 ng/mL, respectively.

In the case of `C/C(=C\CCc1ccoc1)CC/C=C(\C)CCCC1=CC(=O)OC1`, the GI50 in test [1] was 3.2 µM; in [2] it was 8.44 µM; in test [3], 4.74 µM; in test [4], 13.2 µM; in test [5], 12.6 µM; in [6], 4.96 µM. Besides, the results for the GI50 in [7], in [8] and in test [9] were 4.37 µM, 4.8 µM and 3.79 µM, respectively. Also, the TGI came out at 24.9 µM in [1]; 23.7 µM in [2]; 29.6 µM in test [3]; 40.1 µM in test [4]; 50.4 µM in [5]; 23.1 µM in [6]. For the same molecule, the TGI in test [7] is more than 100 µM; in test [8] it was more than 100 µM; in [9], 18 µM.

As for `C=CC1CC12C(=O)C1OC2(C)C2C(=O)c3cc4ccccc4cc3C(=O)C12` (centres undefined), the GI50 in [1] was 20.3 µM; in test [2], 21.8 µM; in [3] it was 25.9 µM; in [4] it was 30.2 µM; in test [5], 48.1 µM; in test [6] it was 44.7 µM. Besides, the GI50 in test [7] is 38.3 µM. Moreover, the TGI in test [1] was more than 100 µM; in test [2], 58.7 µM; in [3], more than 100 µM; in test [4] it was 96.9 µM; in [5] it was more than 100 µM; in [6], more than 100 µM. In test [7], this molecule gave a TGI of more than 100 µM.

For the molecule `CC/C(=C(/c1ccc(OCCN(C)C)cc1)c1ccc(OC(=O)CCCCC(=O)c2c(C)[nH]c(/C=C3\N=C(c4ccc[nH]4)C=C3OC)c2C)cc1)c1ccccc1`, the GI50 in test [1] is 4.6 µM; in test [2], 3.75 µM; in test [3], 12.7 µM; in [4], 7.32 µM; in test [5] it was 14.1 µM; in [10], 4.39 µM. For the same molecule, the GI50 was 10.7 µM in test [6], 3.92 µM in test [7] and 3.16 µM in test [8]. The TGI was found to be 20.6 µM in test [1]; 14.3 µM in test [2]; 29.7 µM in test [3]; 20.6 µM in test [4]; 27 µM in test [5]; 22.3 µM in [10]. The figures for the TGI in test [6], in test [7] and in test [8] were 23.2 µM, 15.7 µM and 12.6 µM, respectively.

Take `COCCOc1cc(F)c2c(Nc3ccc(NC(=O)Cn4cc(C(C)C)nn4)cc3)ncnc2c1`: the GI50 was more than 100 µM in test [1]; 1.16 µM in test [2]; more than 100 µM in test [3]; 6.41 µM in test [4]; 19.2 µM in test [10]; more than 100 µM in test [6]. Also, the GI50 is more than 100 µM in [7], 10.2 µM in test [8] and 53.5 µM in test [9]. For the same molecule, the concentration for total growth inhibition (TGI) in test [1], in [2], in test [3], in [4], in test [10] and in [6] was more than 100 µM each time. The TGI in test [7], in [8] and in [9] was more than 100 µM throughout.

As to `Ic1ccc(Nc2nc3nonc3nc2Nc2ccc(I)cc2)cc1`, the GI50 in [1] is 0.186 µM; in test [2] it was 0.293 µM; in test [5], 0.23 µM; in test [10], 0.246 µM; in [6], 0.265 µM; in test [7] it was 0.282 µM. Also, the values for the GI50 in test [8] and in test [9] were 0.091 µM and 0.215 µM, respectively. In addition, the TGI is more than 100 µM in [1]; more than 100 µM in test [2]; 0.741 µM in test [5]; more than 100 µM in test [10]; 0.937 µM in test [6]; more than 100 µM in [7]. Further, the TGI in test [8] is more than 100 µM; in test [9] it was 0.893 µM.

Turning to `COC(=O)C1=C(C)N(NC(=O)c2ccccc2)C(C)(O)C12CCOC2=O` (centres undefined), the total growth inhibition concentration (TGI) in [2], in [3], in test [4], in test [5], in test [10] and in test [6] was more than 100 µM throughout. The TGI in [7], in test [8] and in test [9] was more than 100 µM throughout.

On to `NC(=NCCCOc1ccc(Cl)cc1)Nc1ccc(C(F)(F)F)cc1`, for which the GI50 is 1.67 µM in [1]; 2.06 µM in test [3]; 4.68 µM in test [5]; 2.15 µM in test [10]; 1.54 µM in [6]; 2.78 µM in [7]. The GI50 in test [8] was 1.76 µM; in test [9], 1.7 µM. The concentration for total growth inhibition (TGI) in test [1] worked out at 5.25 µM; in [3], 5.54 µM; in test [5] it was 18.1 µM; in test [10], 8.01 µM; in test [6], 3.25 µM; in test [7], 12.6 µM. In addition, the TGI was 5.6 µM in [8] and 3.28 µM in test [9].

As for `CS(=O)(=O)N/N=C/CN1C(=O)c2ccccc2C1=O`, the TGI in test [2], in test [3], in test [4], in test [5], in test [10] and in test [6] was more than 100 µM each time. Further, the TGI in test [7], in test [8] and in [9] was more than 100 µM throughout.

As for `Cc1ccc(S(=O)(=O)NCC2CCCCC2=O)cc1` (centres undefined), the TGI in test [2], in [3], in [4], in test [5], in test [10] and in test [6] was more than 100 µM each time. The total growth inhibition concentration (TGI) in [7], in [8] and in test [9] was more than 100 µM throughout.

`COC(=O)c1cc2c3ccccc3n(C(C)=O)c2cn1`: the TGI in test [2], in test [3], in test [4], in test [5], in test [10] and in [6] was more than 100 µM each time. Moreover, the total growth inhibition concentration (TGI) in test [7], in test [8] and in test [9] was more than 100 µM throughout.

Regarding `S=C(N/N=C/c1ccco1)NC12CC3CC(CC(C3)C1)C2`, the concentration for total growth inhibition (TGI) in [2] was more than 100 µM; in test [3] it was more than 100 µM; in test [4] it was more than 100 µM; in [5], more than 100 µM; in [10], more than 100 µM; in [6] it was 33.4 µM. Besides, the TGI in test [7], in test [8] and in test [9] was more than 100 µM throughout.
